The NIST ThermoML archive (doi:10.1021/je050170x)

Tests used:
[1] = refractive index (Na D-line) (dimensionless); settings: 101.33 kPa, Liquid, Standard Abbe refractometry
[2] = for surface tension liquid-gas: Wilhelmy-plate method; for mass density / viscosity: 101.33 kPa, Liquid; for viscosity: Capillary tube (Ostwald / Ubbelohde) method

CCOC(=O)c1ccccc1O [ethyl 2-hydroxybenzoate]
Settings	mass density, [2] [kg/m3]	refractive index, [1]	surface tension liquid-gas, [2] [mN/m]	viscosity, [2] [mPa·s]
288.15 K	1134.72	1.52481	37.5	3.694
298.15 K	1125	1.52022	36.3	2.831
308.15 K	1115.29	1.51573	35.2	2.253
318.15 K	1105.6	1.51116	34.4	1.842
328.15 K	1095.94	1.50646	33.4	1.53
338.15 K	1086.24	1.50191	32	1.305
348.15 K	1076.6	1.49744	31	1.126
358.15 K	1066.83	1.49296	30.2	0.984

CC(=O)OCCC(C)C [3-methylbutyl ethanoate]
Settings	mass density, [2] [kg/m3]	refractive index, [1]	surface tension liquid-gas, [2] [mN/m]	viscosity, [2] [mPa·s]
288.15 K	877.72	1.40288	25.4	0.94
298.15 K	867.91	1.39836	24.3	0.804
308.15 K	858.07	1.39365	23.4	0.704
318.15 K	848.17	1.38895	22.4	0.627
328.15 K	838.22	1.38447	21.6	0.559
338.15 K	828.19	1.37971	20.6	0.484
348.15 K	818.07	1.37487	19.6	0.434
358.15 K	807.85	1.36995	18.7	0.39

CCCCCCCC(=O)OCC [ethyl octanoate]
Settings	mass density, [2] [kg/m3]	refractive index, [1]	surface tension liquid-gas, [2] [mN/m]	viscosity, [2] [mPa·s]
288.15 K	870.79	1.41991	27.2	1.697
298.15 K	862.15	1.4156	26.4	1.411
308.15 K	853.52	1.41137	25.5	1.193
318.15 K	844.87	1.40702	24.7	1.027
328.15 K	836.21	1.40294	23.8	0.892
338.15 K	827.53	1.39857	22.8	0.784
348.15 K	818.58	1.39418	22	0.694
358.15 K	810.05	1.38974	21.4	0.617

CCOC(=O)Cc1ccccc1 [ethyl phenylacetate]
Settings	mass density, [2] [kg/m3]	refractive index, [1]	surface tension liquid-gas, [2] [mN/m]	viscosity, [2] [mPa·s]
288.15 K	1036.35	1.49971	35.9	3.002
298.15 K	1026.96	1.49513	34.6	2.384
308.15 K	1017.6	1.49063	33.5	1.948
318.15 K	1008.26	1.48583	32.8	1.624
328.15 K	998.93	1.48149	31.6	1.383
338.15 K	989.61	1.47688	30.6	1.191
348.15 K	980.28	1.47224	29.4	1.037
358.15 K	970.95	1.46747	28.6	0.908

CCCC(=O)OCCC(C)C [3-methylbutyl butanoate]
Settings	mass density, [2] [kg/m3]	refractive index, [1]	surface tension liquid-gas, [2] [mN/m]	viscosity, [2] [mPa·s]
288.15 K	867.72	1.41259	25.7	1.317
298.15 K	858.69	1.40815	24.7	1.111
308.15 K	849.62	1.40374	24	0.952
318.15 K	840.55	1.39927	23.1	0.827
328.15 K	831.47	1.39506	22.4	0.724
338.15 K	822.35	1.39055	21.6	0.641
348.15 K	813.19	1.386	20.5	0.573
358.15 K	803.96	1.38139	19.7	0.511

COC(=O)c1ccccc1 [methyl benzoate]
Settings	mass density, [2] [kg/m3]	refractive index, [1]	surface tension liquid-gas, [2] [mN/m]	viscosity, [2] [mPa·s]
288.15 K	1093.23	1.51915	38.6	2.297
298.15 K	1083.92	1.51467	37.2	1.851
308.15 K	1074.34	1.50993	35.8	1.531
318.15 K	1064.62	1.50514	34.8	1.297
328.15 K	1054.82	1.50058	33.7	1.108
338.15 K	1044.99	1.49584	32.5	0.97
348.15 K	1035.23	1.49107	31.3	0.852
358.15 K	1025.6	1.48624	30.4	0.75

CCC(=O)OCc1ccccc1 [benzyl propanoate]
Settings	mass density, [2] [kg/m3]	refractive index, [1]	surface tension liquid-gas, [2] [mN/m]	viscosity, [2] [mPa·s]
288.15 K	1036.86	1.4995	36	2.55
298.15 K	1027.6	1.49498	34.8	2.123
308.15 K	1018.38	1.49074	33.6	1.787
318.15 K	1009.15	1.48611	32.4	1.515
328.15 K	999.93	1.48171	31.6	1.294
338.15 K	990.72	1.47711	30.5	1.114
348.15 K	981.49	1.47252	29.5	0.964
358.15 K	972.25	1.46768	28.5	0.84

CC(=O)OCc1ccccc1 [benzyl ethanoate]
Settings	mass density, [2] [kg/m3]	refractive index, [1]	surface tension liquid-gas, [2] [mN/m]	viscosity, [2] [mPa·s]
288.15 K	1060.11	1.50439	37.7	2.53
298.15 K	1050.75	1.49982	36.4	2.056
308.15 K	1041.39	1.49539	35.3	1.703
318.15 K	1032.03	1.49064	34.1	1.432
328.15 K	1022.67	1.48623	33.2	1.229
338.15 K	1013.29	1.48157	32.2	1.059
348.15 K	1003.89	1.47701	31.1	0.941
358.15 K	994.45	1.47233	30.1	0.826

CCCCCC(=O)OCC [ethyl hexanoate]
Settings	mass density, [2] [kg/m3]	refractive index, [1]	surface tension liquid-gas, [2] [mN/m]	viscosity, [2] [mPa·s]
288.15 K	875.64	1.4095	26.4	1.102
298.15 K	866.29	1.40504	25.4	0.94
308.15 K	856.91	1.40055	24.5	0.814
318.15 K	847.5	1.39597	23.6	0.711
328.15 K	838.05	1.39164	22.7	0.63
338.15 K	828.55	1.38705	21.8	0.562
348.15 K	818.99	1.38239	21	0.504
358.15 K	809.34	1.37768	20	0.452

CCOC(=O)c1ccccc1 [ethyl benzoate]
Settings	mass density, [2] [kg/m3]	refractive index, [1]	surface tension liquid-gas, [2] [mN/m]	viscosity, [2] [mPa·s]
288.15 K	1050.78	1.5076	35.7	2.444
298.15 K	1041.42	1.50328	34.6	1.971
308.15 K	1032.07	1.49863	33.3	1.623
318.15 K	1022.73	1.49391	32.5	1.368
328.15 K	1013.4	1.48946	31.5	1.169
338.15 K	1004.06	1.4847	30.2	1.016
348.15 K	994.7	1.48004	29.3	0.89
358.15 K	985.31	1.47526	28.4	0.784

CCOC(=O)CC(C)=O [ethyl 3-oxobutanoate]
Settings	mass density, [2] [kg/m3]	refractive index, [1]	surface tension liquid-gas, [2] [mN/m]	viscosity, [2] [mPa·s]
288.15 K	1033.92	1.42091	33.3	1.902
298.15 K	1023.45	1.41658	32.3	1.581
308.15 K	–	1.41246	31.1	1.344
318.15 K	–	1.40803	30	1.144
328.15 K	992.26	1.40386	29.1	0.981
338.15 K	981.58	1.39949	28.2	0.847
348.15 K	971.05	1.3951	27	0.736
358.15 K	960.46	1.39061	26.1	0.644

CCOC(=O)CC(C)C [ethyl 3-methylbutanoate]
Settings	mass density, [2] [kg/m3]	refractive index, [1]	surface tension liquid-gas, [2] [mN/m]	viscosity, [2] [mPa·s]
288.15 K	869.66	1.3988	24.4	0.853
298.15 K	859.78	1.39401	23.5	0.739
308.15 K	849.83	1.38931	22.5	0.642
318.15 K	839.81	1.38458	21.6	0.566
328.15 K	829.71	1.37978	20.7	0.504
338.15 K	819.52	1.37492	19.6	0.452
348.15 K	809.2	1.37002	18.7	0.408
358.15 K	798.73	1.36524	17.6	0.367
